This assay concerns the target AMPK α1β1γ1 (Homo sapiens (Human), UniProt Q13131+Q9Y478). The assay is described as follows: in vitro AMPK activation assay (ADP Glo Luminescence Kinase test). In kind it is biochemical. Particulars: for Emax: maximal achievable activation in the tested concentration range, percent of control max (positive control without test substance = 100%), read-out: AMPK α1β1γ1 PoCmax; for pEC50: recombinant human AMPK alpha1/beta1/gamma1, ADP-Glo luminescence read-out. The procedure:
Recombinant human AMPK (containing subunits alpha1, beta1 and gamma1) was obtained from a baculovirus expression system. The 3 subunits were expressed together, affinity-purified via a GST-tag fused to the alpha 1 subunit and deep-frozen in storage buffer (50 mM Tris-HCl pH 8, 300 mM NaCl, 1 mM TCEP and 10% glycerol) at −80° C. until use. The activity of the AMPK protein was determined using the ADP Glo® Luminescence Kinase test (Promega; V9103X). In this homogeneous test the amount of ADP formed by the kinase reaction is quantified by a luciferin-luciferase reaction using luminescence as read-out. The luminescence signal obtained correlates with the amount of ADP resulting from the kinase reaction and thus correlates with the activity of the protein kinase.
The test compounds were dissolved in 100% DMSO at a concentration of 10 mM and in a first step diluted in DMSO to a concentration of 5 mM, followed by serial dilution steps in 100% DMSO. Dilution factor and number of dilution steps may vary. Typically 8 different concentrations by 1:5 dilutions were prepared, further dilutions of the substances were carried out with test buffer (20 mM Hepes (pH 7.0), 15 mM MgCl2, 0.025% BSA, 0.01% Brij 35) until a concentration was reached which was 5 times above the final test concentration. 2 μl aliquots of these dilutions were transferred into a 384-well Optiplate (Perkin Elmer, #6007290). Typically the start concentration for serial dilutions in the assay is 10 μM. Typically AMPK was diluted to 25 μg/ml in the test buffer and 4 μl of this dilution were used in the kinase test (final concentration of AMPK is 10 μg/ml in a total volume of 10 μl for the kinase reaction). Kinase concentrations may vary depending on activity of the preparation batches. After 10 minutes incubation at room temperature 4 μl of a mix containing 2.5 μM substrate (H-His-Met-Arg-Ser-Ala-Met-Ser-Gly-Leu-His-Leu-Val-Lys-Arg-Arg-OH Trifluoroacetate salt/HMRSAMSGLHLVKRR from Bachem, Cat. No. H5938) and 75 μM ATP in test buffer were added to each well and the incubation was continued for 60 minutes at room temperature.
Positive controls are the reaction mixtures that contain no test substance; negative controls (blanks) are reaction mixtures that contain no AMPK enzyme.
After 60 minutes, 10 μl ADP-Glo® solution (ADP-Glo Reagent #V912B Promega) (heated to room temperature) were added to each well and incubation was continued for 40 minutes. Then 20 μl Kinase detection mix (Detection Buffer #V913B Promega; Kinase Detection Substrate #V914B Promega) were added and incubated for additional 40 minutes at room temperature.
All incubations were done in sealed plates in the dark.
The plates were read with an Envision Luminescence Reader (Perkin-Elmer).
Data Evaluation and Calculation:
The output file of the reader is a csv file that contains the well number and measured RLU. For data evaluation and calculation, the measurement of the negative control was set as 0% control and the measurement of the positive control was set as 100% control. Based on these values the % value for the measurement of each substance concentration was calculated using Assay Explorer software (Accelrys). Activating compounds achieve % of control values above 100%. The IC50 values were calculated from the % control values using Assay Explorer software. Calculation: [y=(a−d)/(1+(x/c)^b)+d], a=low value, d=high value; x=conc M; c=IC50 M; b=hill; y=% ctrl. The maximal achievable activation of a compound in the tested concentration range is reported as percent of control max (PoCmax).

pEC50: −log10 of the molar value.

AMPK α1β1γ1, sequence (Q13131 whole entry, the tested form may be a part): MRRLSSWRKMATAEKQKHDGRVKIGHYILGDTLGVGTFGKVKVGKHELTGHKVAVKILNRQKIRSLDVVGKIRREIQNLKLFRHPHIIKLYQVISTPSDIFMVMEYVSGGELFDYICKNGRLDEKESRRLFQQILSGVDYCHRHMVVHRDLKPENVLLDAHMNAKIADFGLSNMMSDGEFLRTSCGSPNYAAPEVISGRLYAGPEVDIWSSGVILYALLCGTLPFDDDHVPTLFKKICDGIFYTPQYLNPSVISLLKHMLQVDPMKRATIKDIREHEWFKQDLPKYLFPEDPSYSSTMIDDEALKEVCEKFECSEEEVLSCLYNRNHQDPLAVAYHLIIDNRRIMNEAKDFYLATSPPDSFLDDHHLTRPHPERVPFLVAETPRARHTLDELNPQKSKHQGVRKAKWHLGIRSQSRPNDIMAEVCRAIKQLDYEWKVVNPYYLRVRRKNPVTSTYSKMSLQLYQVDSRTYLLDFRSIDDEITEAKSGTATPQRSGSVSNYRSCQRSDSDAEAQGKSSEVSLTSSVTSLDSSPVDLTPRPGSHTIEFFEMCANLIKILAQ
AMPK α1β1γ1, sequence (Q9Y478 whole entry, the tested form may be a part): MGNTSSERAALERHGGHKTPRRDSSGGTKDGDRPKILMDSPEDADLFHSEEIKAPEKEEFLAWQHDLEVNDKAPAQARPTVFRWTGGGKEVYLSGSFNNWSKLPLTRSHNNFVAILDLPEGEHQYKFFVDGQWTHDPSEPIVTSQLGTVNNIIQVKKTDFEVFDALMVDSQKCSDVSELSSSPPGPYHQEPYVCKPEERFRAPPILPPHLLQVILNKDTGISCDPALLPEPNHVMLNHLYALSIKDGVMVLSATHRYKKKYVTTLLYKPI
AMPK α1β1γ1, sequence (P54619 whole entry partner, the tested form may be a part): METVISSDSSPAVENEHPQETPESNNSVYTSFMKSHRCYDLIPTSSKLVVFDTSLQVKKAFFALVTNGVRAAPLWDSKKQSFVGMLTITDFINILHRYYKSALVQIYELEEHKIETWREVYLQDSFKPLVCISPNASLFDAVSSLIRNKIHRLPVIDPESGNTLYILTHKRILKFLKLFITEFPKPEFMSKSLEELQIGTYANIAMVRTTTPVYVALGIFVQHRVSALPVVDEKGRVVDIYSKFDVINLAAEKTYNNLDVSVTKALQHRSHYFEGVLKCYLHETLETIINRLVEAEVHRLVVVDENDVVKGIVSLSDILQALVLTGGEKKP

A word on the pEC50: it is the EC50 on a negative log10 scale, so that one unit is a factor of ten. In the case of `CS(C)(=O)=Nc1ccc(-c2ccc(-c3nc4[nH]c(O[C@@H]5CO[C@H]6[C@@H]5OC[C@H]6O)nc4cc3Cl)cc2)cc1F` [Example 1, ({4-[4-(2-{[(3R,3aR,6R,6aR)-6-Hydroxy-hexahydrofuro[3,2-b]furan-3-yl]oxy}-6-chloro-3H-imidazo[4,5-b]pyridin-5-yl)phenyl]-2-fluorophenyl}imino)dimethyl-λ^6-sulfanone], the Emax was determined as 540% and the negative-log EC50 (pEC50) is 6.55. On to `CS(C)(=O)=Nc1cc(F)c(-c2ccc(-c3nc4[nH]c(O[C@@H]5CO[C@H]6[C@@H]5OC[C@H]6O)nc4cc3Cl)cc2)c(F)c1` [Example 2, ({4-[4-(2-{[(3R,3aR,6R,6aR)-6-Hydroxy-hexahydrofuro[3,2-b]furan-3-yl]oxy}-6-chloro-3H-imidazo[4,5-b]pyridin-5-yl)phenyl]-3,5-difluorophenyl}imino)dimethyl-λ^6-sulfanone], for which the Emax was found to be 496% and the negative logarithm of the EC50 (pEC50) was 6.94. `CS(C)(=O)=Nc1cc(F)c(-c2ccc(-c3nc4[nH]c(O[C@@H]5CO[C@H]6[C@@H]5OC[C@H]6O)nc4cc3Cl)cc2)cc1F` [Example 3, ({4-[4-(2-{[(3R,3aR,6R,6aR)-6-Hydroxy-hexahydrofuro[3,2-b]furan-3-yl]oxy}-6-chloro-3H-imidazo[4,5-b]pyridin-5-yl)phenyl]-2,5-difluorophenyl}imino)dimethyl-λ^6-sulfanone]: the Emax turned out to be 480% and the pEC50 was 6.52.

As for `CS(C)(=O)=Nc1c(F)cc(-c2ccc(-c3nc4[nH]c(O[C@@H]5CO[C@H]6[C@@H]5OC[C@H]6O)nc4cc3Cl)cc2)cc1F` [Example 4, ({4-[4-(2-{[(3R,3aR,6R,6aR)-6-Hydroxy-hexahydrofuro[3,2-b]furan-3-yl]oxy}-6-chloro-3H-imidazo[4,5-b]pyridin-5-yl)phenyl]-2,6-difluorophenyl}imino)dimethyl-λ^6-sulfanone], the Emax was 421% and the pEC50 was 5.45. Turning to `CS(C)(=O)=Nc1ccc(-c2ccc(-c3nc4[nH]c(O[C@@H]5CO[C@H]6[C@@H]5OC[C@H]6O)nc4cc3Cl)cc2)c(F)c1` [Example 5, ({4-[4-(2-{[(3R,3aR,6R,6aR)-6-Hydroxy-hexahydrofuro[3,2-b]furan-3-yl]oxy}-6-chloro-3H-imidazo[4,5-b]pyridin-5-yl)phenyl]-3-fluorophenyl}imino)dimethyl-λ^6-sulfanone], the Emax was found to be 538% and the pEC50 is 7.22. For the compound `CS(C)(=O)=Nc1ccc(-c2ccc(-c3nc4[nH]c(O[C@@H]5CO[C@H]6[C@@H]5OC[C@H]6O)nc4cc3Cl)cc2)c(F)c1F` [Example 6, ({4-[4-(2-{[(3R,3aR,6R,6aR)-6-Hydroxy-hexahydrofuro[3,2-b]furan-3-yl]oxy}-6-chloro-3H-imidazo[4,5-b]pyridin-5-yl)phenyl]-2,3-difluorophenyl}imino)dimethyl-λ^6-sulfanone], the Emax turned out to be 490% and the pEC50 was 6.35. For `CS(C)(=O)=Nc1ccc(-c2ccc(-c3nc4[nH]c(O[C@@H]5CO[C@H]6[C@@H]5OC[C@H]6O)nc4cc3Cl)c(F)c2)cc1` [Example 7, ({4-[4-(2-{[(3R,3aR,6R,6aR)-6-Hydroxy-hexahydrofuro[3,2-b]furan-3-yl]oxy}-6-chloro-3H-imidazo[4,5-b]pyridin-5-yl)-3-fluorophenyl]phenyl}imino)dimethyl-λ^6-sulfanone], the Emax was found to be 640% and the pEC50 is 6.90. On the same counts, the results for `CS(C)(=O)=Nc1ccc(-c2ccc(-c3nc4[nH]c(O[C@@H]5CO[C@H]6[C@@H]5OC[C@H]6O)nc4cc3Cl)cc2F)cc1` [Example 8, ({4-[4-(2-{[(3R,3aR,6R,6aR)-6-Hydroxy-hexahydrofuro[3,2-b]furan-3-yl]oxy}-6-chloro-3H-imidazo[4,5-b]pyridin-5-yl)-2-fluorophenyl]phenyl}imino)dimethyl-λ^6-sulfanone] are 659% and 6.59.

Consider `CS(C)(=O)=Nc1ccc(-c2ccc(-c3nc4[nH]c(O[C@@H]5CO[C@H]6[C@@H]5OC[C@H]6O)nc4cc3Cl)c(F)c2F)cc1` [Example 9, ({4-[4-(2-{[(3R,3aR,6R,6aR)-6-Hydroxy-hexahydrofuro[3,2-b]furan-3-yl]oxy}-6-chloro-3H-imidazo[4,5-b]pyridin-5-yl)-2,3-difluorophenyl]phenyl}imino)dimethyl-λ^6-sulfanone], for which the Emax worked out at 700% and the pEC50 is 6.55.

Take `CS(C)(=O)=Nc1cnc(-c2ccc(-c3nc4[nH]c(O[C@@H]5CO[C@H]6[C@@H]5OC[C@H]6O)nc4cc3Cl)cc2)c(F)c1` [Example 10, ({6-[4-(2-{[(3R,3aR,6R,6aR)-6-Hydroxy-hexahydrofuro[3,2-b]furan-3-yl]oxy}-6-chloro-3H-imidazo[4,5-b]pyridin-5-yl)phenyl]-5-fluoropyridin-3-yl}imino)dimethyl-λ^6-sulfanone]: the Emax turned out to be 479% and the pEC50 was 6.71. For `COc1nc(-c2ccc(N=S(C)(C)=O)cc2)ccc1-c1nc2[nH]c(O[C@@H]3CO[C@H]4[C@@H]3OC[C@H]4O)nc2cc1Cl` [Example 11, ({4-[5-(2-{[(3R,3aR,6R,6aR)-6-Hydroxy-hexahydrofuro[3,2-b]furan-3-yl]oxy}-6-chloro-3H-imidazo[4,5-b]pyridin-5-yl)-6-methoxypyridin-2-yl]phenyl}imino)dimethyl-λ^6-sulfanone] the same measures were 423% and 5.92. For `CS(C)(=O)=Nc1ccc(-c2ccc(-c3nc4nc(O[C@@H]5CO[C@H]6[C@@H]5OC[C@H]6O)[nH]c4cc3F)cc2)cc1` [Example 12, ({4-[4-(2-{[(3R,3aR,6R,6aR)-6-Hydroxy-hexahydrofuro[3,2-b]furan-3-yl]oxy}-6-fluoro-1H-imidazo[4,5-b]pyridin-5-yl)phenyl]phenyl}imino)dimethyl-λ^6-sulfanone] the same measures were 608% and 6.96. Consider `CS(=N)(=O)c1ccc(-c2ccc(-c3nc4[nH]c(O[C@@H]5CO[C@H]6[C@@H]5OC[C@H]6O)nc4cc3Cl)cc2)c(F)c1` (stereo partly drawn) [Example 13, {4-[4-(2-{[(3R,3aR,6R,6aR)-6-Hydroxy-hexahydrofuro[3,2-b]furan-3-yl]oxy}-6-chloro-3H-imidazo[4,5-b]pyridin-5-yl)phenyl]-3-fluorophenyl}(imino)methyl-λ^6-sulfanone], for which the Emax is 523%. For `CS(C)(=O)=Nc1ccc(-c2ccc(-c3nc4nc(O[C@@H]5CO[C@H]6[C@@H]5OC[C@H]6O)[nH]c4cc3F)cc2)c(F)c1` [Example 14, ({4-[4-(2-{[(3R,3aR,6R,6aR)-6-Hydroxy-hexahydrofuro[3,2-b]furan-3-yl]oxy}-6-fluoro-1H-imidazo[4,5-b]pyridin-5-yl)phenyl]-3-fluorophenyl}imino)dimethyl-λ^6-sulfanone], the Emax came out at 484% and the pEC50 is 7.17. For `COc1nc(-c2ccc(N=S(C)(C)=O)cc2F)ccc1-c1nc2[nH]c(O[C@@H]3CO[C@H]4[C@@H]3OC[C@H]4O)nc2cc1Cl` [Example 15, ({4-[5-(2-{[(3R,3aR,6R,6aR)-6-Hydroxy-hexahydrofuro[3,2-b]furan-3-yl]oxy}-6-chloro-3H-imidazo[4,5-b]pyridin-5-yl)-6-methoxypyridin-2-yl]-3-fluorophenyl}imino)dimethyl-λ^6-sulfanone] the same measures were 426% and 6.46.

Source of the values: patent publication US10053471B2, “Azabenzimidazole derivatives” (Boehringer Ingelheim International GmbH, priority 2015, dated 2018).
